Results published in publication PMC9293909 (Nature Communications, 2022).
“And” between values parts separate entries of the source, which are not always exact repeats. Identical values can stand only once. Like-named read-outs stand apart in the source and are kept apart here.

Key:
[1] = system: motor coordination
Experimental: On the day of the experiment, three baseline trials were recorded. The compound was administered IP (10 µg kg^−1, n = 6) or IV via tail vein injection (10 and 25 µg kg^−1, n = 6 per group). The control group received subcutaneous saline and the positive control group received subcutaneous morphine (15 mg kg^−1). Latency to fall (seconds) was measured in triplicate at 1, 2, 3 and 5 h post drug administration.

[2] = system: neuropathic pain (paw withdrawal threshold); test: Spinal nerve ligation (Chung model), mechanical allodynia, von Frey; assay type: in vivo, rat
Experimental: Adult male Sprague–Dawley rats, 7-8 weeks old, weighing around 250 g at the time of Chung model surgery, were purchased from Charles River UK Ltd. The animals were housed in groups of 4 in an air-conditioned room on a 12-hour light/dark cycle. Food and water were available ad libitum. They were allowed to acclimatise to the experimental environment for three days by leaving them on a raised metal mesh for at least 40 min. The baseline paw withdrawal threshold (PWT) was examined using a series of graduated von Frey hairs (see below) for 3 consecutive days before surgery and re-assessed on the 6th to 8th day after surgery and on the 13th to 17th day after surgery before drug dosing.
Prior to surgery each rat was anaesthetised with 3% isoflurane mixed with oxygen (2 L min^−1) followed by an intramuscular injection of ketamine (60 mg kg^−1) plus xylazine (10 mg kg^−1). The back was shaved and sterilised with povidone-iodine. The animal was placed in a prone position and a para-medial incision was made on the skin covering the L4-6 level. The L5 spinal nerve was carefully isolated and tightly ligated with 6/0 silk suture. The wound was then closed in layers after a complete haemostasis. A single-dose of antibiotics (Amoxipen, 15 mg/rat, intraperitoneally, IP) was routinely given for prevention of infection after surgery. The animals were placed in a temperature-controlled recovery chamber until fully awake before being returned to their home cages. The vehicle (normal saline or DMSO) was administered via the IV route at 1 ml·kg^−1 and via the intrathecal (IT) route at 10 µl for each injection. […] To test for mechanical allodynia the animals were placed in individual Perspex boxes on a raised metal mesh for at least 40 min before the test. Starting from the filament of lower force, each filament was applied perpendicularly to the centre of the ventral surface of the paw until slightly bent for 6 seconds. If the animal withdrew or lifted the paw upon stimulation, then a hair with force immediately lower than that tested was used. If no response was observed, then a hair with force immediately higher was tested. […] The animals were returned to their home cages to rest (about 30 min) between two neighbouring testing time points. At the end of each experiment, the animals were deeply anaesthetised with isoflurane and killed by decapitation.

[3] = system: heart rate and mean arterial blood pressure; test: Urethane-anaesthetised rat, heart rate and arterial blood pressure; settings: for HR / HR, Average / MAP, Average: Fig6e
From the text: Anaesthesia was induced in adult male Sprague–Dawley rats (230-330 g) with isofluorane (2–4%; Piramal Healthcare). The femoral vein was catheterised for drug delivery. Anaesthesia was maintained with urethane (1.2–1.7 g kg^−1; Sigma) in sterile saline delivered via the femoral vein catheter. […] The trachea was cannulated and the femoral artery catheterised, and both were connected to pressure transducers (Digitimer) to record respiratory airflow and arterial blood pressure, respectively. Blood pressure and airflow signals were amplified using the NeuroLog system (Digitimer) connected to a micro1401 interface and acquired on a computer using Spike2 software (v7.08a; Cambridge Electronic Design). […] Airflow measurements were used to calculate: tidal volume (VT; mL; pressure sensors were calibrated with a 3 mL syringe), and respiratory frequency (f; breaths min^−1; BrPM). Minute ventilation (VE; mL min^−1) was calculated as f × VT.
Cardiovascular and respiratory parameters were allowed to stabilise before experiments began. A1R agonists were administered by intravenous (IV) injection and the changes in HR, MAP, f, VT, and VE were measured. […] All injections were administered IV as a 350 µl·kg^-1 bolus.

[4] = Half-life determination in PBS; assay type: physicochemical; settings: for 1st / % Compound Remaining / 2nd / % Compound Remaining / Mean / % Compound Remaining: PBS, pH 7.4; for half-life: buffer, pH 7.4, PBS
Experimental: […] Samples were analysed by HPLC-MS/MS and corresponding peak areas were recorded for each analyte. The ratio of precursor compound remaining after each time-point relative to the amount present at time 0, expressed as a percentage, is reported as chemical stability.

[5] = system: respiration (f, VT, VE); test: Urethane-anaesthetised rat, respiration; settings: Fig6e
Experimental: The femoral vein was catheterised for drug delivery.
Adult male Sprague–Dawley rats (400-500 g) were anaesthetised with urethane and instrumented as described above, with the exception that the arterial cannulation was not performed.
Changes in f, VT, and VE were measured. If the dosing occurred close to a respiratory event such as a sigh a second IV dose was administered, with 20 min recovery periods either side of the injection.

[6] = antagonist group, 1h after dosing
[7] = antagonist group, 2h after dosing
[8] = antagonist group, 4h after dosing
[9] = incubation 0 minutes, UoBern01 at 1.00E-06 M
[10] = incubation 60 minutes, UoBern01 at 1.00E-06 M
[11] = incubation 120 minutes, UoBern01 at 1.00E-06 M

SMILES: CN1CC[C@]23c4c5ccc(O)c4O[C@H]2[C@@H](O)C=C[C@H]3[C@H]1C5 [morphine]
- Seconds on rota, 1h avg ([1]; Morphine, 1h post inj, avg of 3 trials per animal): 12.0 s and 6.0 s and 5.0 s and 6.3 s and 10.7 s and 10.3 s
- 1h avg/ baseline ([1]; Morphine, 1h post inj, per animal): 0.218 and 0.137 and 0.1 and 0.2 and 0.164 and 0.0833
- Seconds on rota, 1h ([1]; Morphine, 1h post inj, single trials, individual animals): 5 s and 14 s and 17 s and 9 s and 4 s and 2 s and 10 s and 8 s and 1 s and 12 s
- average of avg/baseline, 1hr post inj ([1]; Morphine, 1hr, group average): 0.150
- Seconds on rota, 2h avg ([1]; Morphine, 2h post inj, avg of 3 trials per animal): 34.0 s and 19.7 s and 12.3 s and 6.7 s and 21.7 s and 31.0 s
- 2h avg/ baseline ([1]; Morphine, 2h post inj, per animal): 0.6 and 0.45 and 0.259 and 0.2 and 0.333 and 0.25
- Seconds on rota, 2h ([1]; Morphine, 2h post inj, single trials, individual animals): 30 Seconds and 27 Seconds and 45 Seconds and 7 Seconds and 18 Seconds and 34 Seconds and 2 Seconds and 17 Seconds and 8 Seconds and 6 Seconds (2×) and 24 Seconds and 22 Seconds and 19 Seconds and 26 Seconds
- average of avg/baseline, 2hr post inj ([1]; Morphine, 2hr, group average): 0.352
- Seconds on rota, 3h avg ([1]; Morphine, 3h post inj, avg of 3 trials per animal): 46.3 s and 37.7 s and 34.0 s and 18.7 s and 55.0 s
- 3h avg/ baseline ([1]; Morphine, 3h post inj, per animal): 0.842 and 0.9 and 0.7 and 0.566 and 0.444
- Seconds on rota, 3h ([1]; Morphine, 3h post inj, single trials, individual animals): 39 s and 41 s and 59 s and 27 s and 29 s and 57 s and 21 s and 54 s and 11 s and 23 s and 22 s and 26 s and 65 s
- average of avg/baseline, 3hr post inj ([1]; Morphine, 3hr, group average): 0.690
- Seconds on rota, 5h avg ([1]; Morphine, 5h post inj, avg of 3 trials per animal): 48.7 s and 52.3 s and 48.0 s and 81.7 s and 84.3 s
- 5h avg/ baseline ([1]; Morphine, 5h post inj, per animal): 0.9 and 1.1 and 1.5 and 1.3 and 0.7
- Seconds on rota, 5h ([1]; Morphine, 5h post inj, single trials, individual animals): 24 s and 57 s and 65 s and 31 s and 60 s and 55 s and 19 s and 73 s and 38 s and 51 s and 67 s and 81 s and 97 s and 88 s and 100 s
- average of avg/baseline, 5hr post inj ([1]; Morphine, 5hr, group average): 1.081
- rotarod performance ([1]; morphine 15 mg kg^−1 SC): caused sedation and motor impairment

SMILES: OC[C@H]1O[C@@H](n2cnc3c(NC4CCCC4OCc4ccccc4)ncnc32)[C@H](O)[C@@H]1O (some centres unmarked) [BnOCPAA]
- paw withdrawal threshold, individual animals (Fig7d) ([2]; 6ug, 1h after dosing): 8
- paw withdrawal threshold, Average (Fig7d) ([2]; 6ug, 1h after dosing, n 11): 9.8
- paw withdrawal threshold, individual animals (Fig7d) ([2]; 6ug, 2h after dosing): 8
- paw withdrawal threshold, Average (Fig7d) ([2]; 6ug, 2h after dosing, n 11): 12.6
- paw withdrawal threshold, individual animals (Fig7d) ([2]; 6ug, 4h after dosing): 8
- paw withdrawal threshold, Average (Fig7d) ([2]; 6ug, 4h after dosing, n 11): 9.8

SMILES: Nc1ncnc2c1ncn2[C@@H]1O[C@H](CO)[C@@H](O)[C@H]1O [ado]
- heart rate ([3]; Fig5c, individual rat): 179 and 147 and 138 and 122
- heart rate, Average ([3]; Fig5c, n 4): 147
- mean arterial blood pressure ([3]; Fig5d, individual rat): 56 and 36 and 42 and 48
- mean arterial blood pressure, Average ([3]; Fig5d, n 4): 46

SMILES: CCCn1c(=O)c2[nH]c(C3CCCC3)nc2n(CCC)c1=O [DPCPX]
- effect on reversal of mechanical allodynia by BnOCPA ([2]; DPCPX 1 mg kg^−1 IP, BnOCPA 6 µg kg^−1 IV): prevented the reversal of mechanical allodynia by BnOCPA
- paw withdrawal threshold, Average (Fig7d) [2, 6]: 4.0
- paw withdrawal threshold, individual animals (Fig7d) [2, 6]: 6 and 4 and 2
- paw withdrawal threshold, Average (Fig7d) [2, 7]: 4.0
- paw withdrawal threshold, individual animals (Fig7d) [2, 7]: 6 and 4 and 2
- paw withdrawal threshold, Average (Fig7d) [2, 8]: 4.7
- paw withdrawal threshold, individual animals (Fig7d) [2, 8]: 6 and 4 and 2

SMILES: O=C(O)CCCc1ccc(N(CCCl)CCCl)cc1 [Chlorambucil]
- 1st / % Compound Remaining [4, 9]: 100%
- 2nd / % Compound Remaining [4, 9]: 100%
- Mean / % Compound Remaining [4, 9]: 100%
- 1st / % Compound Remaining ([4]; incubation 30 minutes): 68.5%
- 2nd / % Compound Remaining ([4]; incubation 30 minutes): 81.3%
- Mean / % Compound Remaining ([4]; incubation 30 minutes): 74.9%
- 1st / % Compound Remaining [4, 10]: 45.8%
- 2nd / % Compound Remaining [4, 10]: 52.3%
- Mean / % Compound Remaining [4, 10]: 49.1%
- 1st / % Compound Remaining ([4]; incubation 90 minutes): 27.3%
- 2nd / % Compound Remaining ([4]; incubation 90 minutes): 31%
- Mean / % Compound Remaining ([4]; incubation 90 minutes): 29.2%
- 1st / % Compound Remaining [4, 11]: 11%
- 2nd / % Compound Remaining [4, 11]: {17.7} %
- Mean / % Compound Remaining [4, 11]: 11%
- half-life ([4]; UoBern01 at 1.00E-06 M, read-out: 1st / Half-Life): 39 min
- half-life ([4]; UoBern01 at 1.00E-06 M, read-out: 2nd / Half-Life): 52.6 min
- half-life ([4]; UoBern01 at 1.00E-06 M, read-out: Mean / Half-Life): 46 min

SMILES: OC[C@H]1O[C@@H](n2cnc3c(N[C@@H]4CCC[C@H]4OCc4ccccc4)ncnc32)[C@H](O)[C@@H]1O [B]
- Freq, Average ([5]; dose group B 8, n 12): 166.9
- Freq, Average ([5]; dose group B 17, n 4): 189.3
- Freq, Average ([5]; dose group B 25, n 4): 209.0
- HR ([3]; dose group B 8, individual rat): 406 and 368 and 425 and 416 and 331 and 340 and 420 and 470
- HR, Average ([3]; dose group B 8, n 8): 397.0
- MAP, Average ([3]; dose group B 8, n 8): 111.3
- HR ([3]; dose group B 17, individual rat): 369 and 385 and 301 and 313
- HR, Average ([3]; dose group B 17, n 4): 342.0
- MAP, Average ([3]; dose group B 17, n 4): 115.8
- HR ([3]; dose group B 25, individual rat): 362 and 382 and 312 and 305
- HR, Average ([3]; dose group B 25, n 4): 340.3
- MAP, Average ([3]; dose group B 25, n 4): 113.5

SMILES: CCCOC(=O)c1c(-c2ccccc2)nc(CC)c(C(=O)SCC)c1CCC [MRS1523]
- effect on analgesia caused by BnOCPA ([2]; MRS1523 2 mg kg^−1 IP, BnOCPA 6 µg kg^−1 IV): had no effect on the analgesia caused by BnOCPA
- paw withdrawal threshold, Average (Fig7d) [2, 6]: 13.6
- paw withdrawal threshold, individual animals (Fig7d) [2, 6]: 15 and 8
- paw withdrawal threshold, Average (Fig7d) [2, 7]: 14.0
- paw withdrawal threshold, individual animals (Fig7d) [2, 7]: 15 and 10
- paw withdrawal threshold, Average (Fig7d) [2, 8]: 12.2
- paw withdrawal threshold, individual animals (Fig7d) [2, 8]: 15 and 10 and 6
